Experimental data from the supplement of paper PMC4862054.

What was measured:
SK-BR-3 [1] = conditions: 72 h
Method in brief: (§1)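 To measure viability, fluorescence at 560/590 nm was read after 2.5 µl CellTiter-Blue had been added for 2 h at 37 °C. Cells from breast cancer lines had been seeded in 20 µl suspension onto 384-well plates pre-loaded with compound dissolved in 5 µl medium and kept for 72 h. EC50 comes from a fitted percent-inhibition dose-response curve censored at the highest concentration, after per-plate normalisation to vehicle and a positive kill control, Z'-factor checks, and removal of rows with zero drug sensitivity score.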

MDA-MB-436 [2] = conditions: 72 h
Method in brief: as §1

MDA-MB-231 [3] = conditions: 72 h
Method in brief: as §1

BT-474 [4] = conditions: 72 h
Method in brief: as §1

CAL-120 [5] = conditions: 72 h
Method in brief: as §1

MDA-MB-468 [6] = conditions: 72 h
Method in brief: as §1

Hs578T [7] = conditions: 72 h
Method in brief: as §1

MFM-223 [8] = conditions: 72 h
Method in brief: as §1

BT-549 [9] = conditions: 72 h
Method in brief: as §1

CAL-85-1 [10] = conditions: 72 h
Method in brief: as §1

HDQ-P1 [11] = conditions: 72 h
Method in brief: as §1

DU-4475 [12] = conditions: 72 h
Method in brief: as §1

CAL-51 [13] = conditions: 72 h
Method in brief: as §1

MDA-MB-453 [14] = conditions: 72 h
Method in brief: as §1

HCC1937 [15] = conditions: 72 h
Method in brief: as §1

HCC1599 [16] = assay: drug sensitivity score (DSS), CellTox Green (DSS (AUC-based score)); higher = stronger drug effect (viability inhibition or cytotoxicity); extreme values may be limits of the assay; conditions: incubation time: 72 h
Method in brief: (§2)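 Normalisation on every plate relied on 0.1 % DMSO and a positive kill control. The plates, 384-well format, held compound at 5 concentrations 10-fold apart across a compound-specific 10,000-fold range, and breast cancer cell lines in 20 µl suspension were incubated on them for 72 h before CellTox Green and then CellTiter-Glo readings. The drug sensitivity score derives from the area under the fitted dose-response curve.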

CAL-120 [17] = assay: as above; conditions: incubation time: 72 h
Method in brief: as §2

MDA-MB-468 [18] = assay: as above; conditions: incubation time: 72 h
Method in brief: as §2

CAL-85-1 [19] = conditions: 72 h; remark: listed apart in the source
Method in brief: (§3)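 For viability and cell death testing, 384-well plates carried compound at 5 concentrations in 10-fold steps over a compound-specific 10,000-fold range, and breast cancer cell lines were seeded in 20 µl suspension. After 72 h incubation, cell death was read by CellTox Green fluorescence (485/520 nm) before viability was read by CellTiter-Glo luminescence. EC50 was fitted from the dose-response curves and censored at the top concentration. Normalisation on each plate was to 0.1 % DMSO and a positive kill control.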

SK-BR-3 [20] = conditions: 72 h; remark: listed apart in the source
Method in brief: as §3

HDQ-P1 [21] = conditions: 72 h; remark: listed apart in the source
Method in brief: as §3

MDA-MB-436 [22] = conditions: 72 h; remark: listed apart in the source
Method in brief: as §3

DU-4475 [23] = conditions: 72 h; remark: listed apart in the source
Method in brief: as §3

HCC1143 = conditions: 72 h
Method in brief: as §3

HCC1599 [24] = conditions: 72 h
Method in brief: as §3

HCC1937 [25] = conditions: 72 h; remark: listed apart in the source
Method in brief: as §3

CAL-51 [26] = conditions: 72 h; remark: listed apart in the source
Method in brief: as §3

MDA-MB-231 [27] = conditions: 72 h; remark: listed apart in the source
Method in brief: as §3

BT-474 [28] = conditions: 72 h; remark: listed apart in the source
Method in brief: as §3

MDA-MB-453 [29] = conditions: 72 h; remark: listed apart in the source
Method in brief: as §3

CAL-120 [30] = conditions: 72 h; remark: listed apart in the source
Method in brief: as §3

Hs578T [31] = conditions: 72 h; remark: listed apart in the source
Method in brief: as §3

MFM-223 [32] = conditions: 72 h; remark: listed apart in the source
Method in brief: as §3

BT-549 [33] = conditions: 72 h; remark: listed apart in the source
Method in brief: as §3

CAL-148 = conditions: 72 h
Method in brief: as §3

MCF-10A = conditions: 72 h
Method in brief: as §3

COC(=O)c1ccc2c(c1)NC(=O)/C2=C(\Nc1ccc(N(C)C(=O)CN2CCN(C)CC2)cc1)c1ccccc1 [BIBF 1120]
EC50, CellTiter-Blue viability (SK-BR-3 [1]): 7750 nM | EC50, CellTiter-Blue viability (MDA-MB-436 [2]): 9110 nM | EC50, CellTiter-Blue viability (MDA-MB-231 [3]): 4160 nM | EC50, CellTiter-Blue viability (BT-474 [4]): 1850 nM | EC50, CellTiter-Blue viability (CAL-120 [5]): 3640 nM | EC50, CellTiter-Blue viability (MDA-MB-468 [6]): 5610 nM | EC50, CellTiter-Blue viability (Hs578T [7]): 7050 nM | EC50, CellTiter-Blue viability (MFM-223 [8]): 555 nM | EC50, CellTiter-Blue viability (BT-549 [9]): 5430 nM | EC50, CellTiter-Blue viability (CAL-85-1 [10]): 6440 nM | EC50, CellTiter-Blue viability (HDQ-P1 [11]): 5930 nM | EC50, CellTiter-Blue viability (DU-4475 [12]): 6940 nM | EC50, CellTiter-Blue viability (CAL-51 [13]): 1400 nM | EC50, CellTiter-Blue viability (MDA-MB-453 [14]): 3180 nM

O=C(/C=C/c1cccc(S(=O)(=O)Nc2ccccc2)c1)NO [Belinostat]
EC50, CellTiter-Blue viability (SK-BR-3 [1]): 200 nM | EC50, CellTiter-Blue viability (MDA-MB-436 [2]): 553 nM | EC50, CellTiter-Blue viability (HCC1937 [15]): 578 nM | EC50, CellTiter-Blue viability (MDA-MB-231 [3]): 684 nM | EC50, CellTiter-Blue viability (BT-474 [4]): 889 nM | EC50, CellTiter-Blue viability (CAL-120 [5]): 204 nM | EC50, CellTiter-Blue viability (MDA-MB-468 [6]): 1940 nM | EC50, CellTiter-Blue viability (Hs578T [7]): 1890 nM | EC50, CellTiter-Blue viability (MFM-223 [8]): 605 nM | EC50, CellTiter-Blue viability (BT-549 [9]): 1890 nM | drug sensitivity score (HCC1599 [16]): 0 | drug sensitivity score (CAL-120 [17]): 9.87 | drug sensitivity score (MDA-MB-468 [18]): 2.85 | EC50, CellTiter-Glo (CAL-85-1 [19]): 738 nM | EC50, CellTiter-Glo (SK-BR-3 [20]): 229 nM | EC50, CellTiter-Glo (HDQ-P1 [21]): 2830 nM | EC50, CellTiter-Glo (MDA-MB-436 [22]): 1250 nM | EC50, CellTiter-Glo (DU-4475 [23]): 358 nM | EC50, CellTiter-Glo (HCC1143): 803 nM | EC50, CellTiter-Glo (HCC1599 [24]): 826 nM | EC50, CellTiter-Glo (HCC1937 [25]): 2180 nM | EC50, CellTiter-Glo (CAL-51 [26]): 29.2 nM | EC50, CellTiter-Glo (MDA-MB-231 [27]): 564 nM | EC50, CellTiter-Glo (BT-474 [28]): 458 nM | EC50, CellTiter-Glo (MDA-MB-453 [29]): 158 nM | EC50, CellTiter-Glo (CAL-120 [30]): 634 nM | EC50, CellTiter-Glo (Hs578T [31]): 989 nM | EC50, CellTiter-Glo (MFM-223 [32]): 264 nM | EC50, CellTiter-Glo (BT-549 [33]): 1010 nM | EC50, CellTiter-Glo (CAL-148): 370 nM | EC50, CellTiter-Glo (MCF-10A): 1150 nM | EC50, CellTiter-Blue viability (CAL-85-1 [10]): 666 nM | EC50, CellTiter-Blue viability (HDQ-P1 [11]): 488 nM | EC50, CellTiter-Blue viability (DU-4475 [12]): 478 nM | EC50, CellTiter-Blue viability (CAL-51 [13]): 1170 nM | EC50, CellTiter-Blue viability (MDA-MB-453 [14]): 125 nM

CCc1c2c(nc3ccc(OC(=O)N4CCC(N5CCCCC5)CC4)cc13)-c1cc3c(c(=O)n1C2)COC(=O)[C@]3(O)CC [Irinotecan]
EC50, CellTiter-Blue viability (SK-BR-3 [1]): 3740 nM | EC50, CellTiter-Blue viability (MDA-MB-436 [2]): 1010 nM | EC50, CellTiter-Blue viability (HCC1937 [15]): 961 nM | EC50, CellTiter-Blue viability (MDA-MB-231 [3]): 8350 nM | EC50, CellTiter-Blue viability (CAL-120 [5]): 1110 nM | EC50, CellTiter-Blue viability (MDA-MB-468 [6]): 1430 nM | EC50, CellTiter-Blue viability (MFM-223 [8]): 9110 nM | EC50, CellTiter-Blue viability (BT-549 [9]): 4110 nM | drug sensitivity score (HCC1599 [16]): 0 | drug sensitivity score (CAL-120 [17]): 0.997 | drug sensitivity score (MDA-MB-468 [18]): 0 | EC50, CellTiter-Glo (SK-BR-3 [20]): 1180 nM | EC50, CellTiter-Glo (MDA-MB-436 [22]): 1160 nM | EC50, CellTiter-Glo (DU-4475 [23]): 1840 nM | EC50, CellTiter-Glo (HCC1599 [24]): 6850 nM | EC50, CellTiter-Glo (CAL-51 [26]): 3290 nM | EC50, CellTiter-Glo (BT-474 [28]): 2550 nM | EC50, CellTiter-Glo (CAL-120 [30]): 2590 nM | EC50, CellTiter-Glo (BT-549 [33]): 9390 nM | EC50, CellTiter-Glo (CAL-148): 1450 nM | EC50, CellTiter-Glo (MCF-10A): 4290 nM | EC50, CellTiter-Blue viability (CAL-85-1 [10]): 3510 nM | EC50, CellTiter-Blue viability (HDQ-P1 [11]): > 10000 nM | EC50, CellTiter-Blue viability (DU-4475 [12]): 2550 nM | EC50, CellTiter-Blue viability (CAL-51 [13]): 2940 nM | EC50, CellTiter-Blue viability (MDA-MB-453 [14]): 4750 nM
